Source: the kinase profiling compilation of Christmann-Franck et al. (2016)

Tests used:
Test in all cases: radiometric filter-binding kinase assay
MAPK7 (human) = MAPK7 (human) (UniProt Q13164)
MAP4K3 (human) = MAP4K3 (human) (UniProt Q8IVH8)
NUAK1 (human) = NUAK1 (human) (UniProt O60285)
TLK1 (human) = TLK1 (human) (UniProt Q9UKI8)
DDR2 (human) = DDR2 (human) (UniProt Q16832)
STK16 (human) = STK16 (human) (UniProt O75716)
TTBK1 (human) = TTBK1 (human) (UniProt Q5TCY1)
EIF2AK3 (human) = EIF2AK3 (human) (UniProt Q9NZJ5)
Chain of EIF2AK3 (human) (Q9NZJ5 whole entry, looked up): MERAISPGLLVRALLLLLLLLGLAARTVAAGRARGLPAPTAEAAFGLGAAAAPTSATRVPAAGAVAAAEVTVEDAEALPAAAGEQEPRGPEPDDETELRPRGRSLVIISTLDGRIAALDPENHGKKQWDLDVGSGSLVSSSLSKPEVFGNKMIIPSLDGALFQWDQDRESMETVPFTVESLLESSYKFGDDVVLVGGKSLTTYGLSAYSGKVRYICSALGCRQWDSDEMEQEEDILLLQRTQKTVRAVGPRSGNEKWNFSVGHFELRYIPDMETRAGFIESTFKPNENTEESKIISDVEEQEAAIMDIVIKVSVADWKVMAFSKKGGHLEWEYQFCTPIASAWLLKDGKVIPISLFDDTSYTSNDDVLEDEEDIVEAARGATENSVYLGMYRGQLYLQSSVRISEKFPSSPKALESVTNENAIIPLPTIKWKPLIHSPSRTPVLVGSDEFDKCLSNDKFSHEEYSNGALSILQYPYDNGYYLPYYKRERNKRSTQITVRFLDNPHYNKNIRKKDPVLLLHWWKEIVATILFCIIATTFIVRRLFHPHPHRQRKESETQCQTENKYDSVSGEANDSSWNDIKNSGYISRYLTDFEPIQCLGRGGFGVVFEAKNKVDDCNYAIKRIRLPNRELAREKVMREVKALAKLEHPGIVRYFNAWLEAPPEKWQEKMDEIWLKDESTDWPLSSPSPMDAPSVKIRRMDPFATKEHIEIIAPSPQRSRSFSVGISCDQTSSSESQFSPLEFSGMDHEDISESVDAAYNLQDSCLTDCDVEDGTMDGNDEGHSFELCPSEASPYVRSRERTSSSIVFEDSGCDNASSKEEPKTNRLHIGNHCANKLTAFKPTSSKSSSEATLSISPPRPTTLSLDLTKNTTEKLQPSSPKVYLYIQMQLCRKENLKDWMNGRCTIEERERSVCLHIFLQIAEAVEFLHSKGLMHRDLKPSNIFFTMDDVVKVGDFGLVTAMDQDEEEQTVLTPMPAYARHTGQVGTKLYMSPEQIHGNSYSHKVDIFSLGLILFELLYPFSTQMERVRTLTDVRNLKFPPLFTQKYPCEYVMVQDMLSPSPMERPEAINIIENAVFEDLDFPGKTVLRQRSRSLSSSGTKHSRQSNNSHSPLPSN

STK33 (human) = STK33 (human) (UniProt Q9BYT3)
Chain of STK33 (human) (Q9BYT3 whole entry, looked up): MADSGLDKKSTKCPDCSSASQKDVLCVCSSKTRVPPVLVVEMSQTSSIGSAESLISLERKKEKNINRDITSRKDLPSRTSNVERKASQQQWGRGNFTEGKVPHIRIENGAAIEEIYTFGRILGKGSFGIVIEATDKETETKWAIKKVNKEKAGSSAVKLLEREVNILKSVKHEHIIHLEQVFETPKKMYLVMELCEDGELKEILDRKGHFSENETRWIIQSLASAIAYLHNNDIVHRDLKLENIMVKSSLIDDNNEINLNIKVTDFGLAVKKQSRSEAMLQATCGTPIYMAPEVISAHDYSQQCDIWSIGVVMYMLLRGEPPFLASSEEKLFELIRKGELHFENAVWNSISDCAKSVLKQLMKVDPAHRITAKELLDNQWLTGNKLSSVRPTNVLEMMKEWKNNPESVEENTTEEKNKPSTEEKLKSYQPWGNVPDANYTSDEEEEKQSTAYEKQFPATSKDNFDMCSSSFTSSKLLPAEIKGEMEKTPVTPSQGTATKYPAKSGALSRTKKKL

[1] = biological target: PRKAA1 PRKAB2 PRKAG1 (human) (UniProt O43741+Q13131+P54619)
STK24 (human) = STK24 (human) (UniProt Q9Y6E0)
Chain of STK24 (human) (Q9Y6E0 whole entry, looked up): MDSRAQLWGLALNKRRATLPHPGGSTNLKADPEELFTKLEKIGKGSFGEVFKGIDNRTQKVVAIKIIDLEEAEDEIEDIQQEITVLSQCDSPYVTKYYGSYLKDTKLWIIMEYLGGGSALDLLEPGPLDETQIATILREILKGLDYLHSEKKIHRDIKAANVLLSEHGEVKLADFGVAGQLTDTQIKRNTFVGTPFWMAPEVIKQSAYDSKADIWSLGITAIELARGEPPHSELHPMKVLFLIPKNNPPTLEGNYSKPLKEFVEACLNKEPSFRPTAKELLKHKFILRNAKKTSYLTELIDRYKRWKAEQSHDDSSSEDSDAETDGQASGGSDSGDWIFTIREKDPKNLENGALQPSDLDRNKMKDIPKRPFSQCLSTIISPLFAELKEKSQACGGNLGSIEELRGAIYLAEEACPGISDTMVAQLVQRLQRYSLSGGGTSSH

ULK1 (human) = ULK1 (human) (UniProt O75385)
PTK6 (human) = PTK6 (human) (UniProt Q13882)
Chain of PTK6 (human) (Q13882 whole entry, looked up): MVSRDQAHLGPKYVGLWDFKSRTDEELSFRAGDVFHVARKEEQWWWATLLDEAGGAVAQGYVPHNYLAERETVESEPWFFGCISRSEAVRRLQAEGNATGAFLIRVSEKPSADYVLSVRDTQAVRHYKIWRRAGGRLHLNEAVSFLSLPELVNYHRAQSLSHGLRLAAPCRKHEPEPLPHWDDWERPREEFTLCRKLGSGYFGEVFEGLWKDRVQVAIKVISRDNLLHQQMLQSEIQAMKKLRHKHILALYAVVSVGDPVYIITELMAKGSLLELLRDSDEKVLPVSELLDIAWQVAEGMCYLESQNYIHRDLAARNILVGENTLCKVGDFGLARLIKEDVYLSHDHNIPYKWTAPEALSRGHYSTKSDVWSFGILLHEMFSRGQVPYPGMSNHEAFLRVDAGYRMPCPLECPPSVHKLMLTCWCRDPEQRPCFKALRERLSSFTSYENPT

ULK2 (human) = ULK2 (human) (UniProt Q8IYT8)
MAP4K5 (human) = MAP4K5 (human) (UniProt Q9Y4K4)
ABL1 (human) = ABL1 (human) (UniProt P00519)
CSNK1G2 (human) = CSNK1G2 (human) (UniProt P78368)
ZAP70 (human) = ZAP70 (human) (UniProt P43403)
WNK1 (human) = WNK1 (human) (UniProt Q9H4A3)
MAP2K6 (human) = MAP2K6 (human) (UniProt P52564)
[2] = tested on: OXSR1 (human), O95747 [T185E]
TESK1 (human) = TESK1 (human) (UniProt Q15569)
PRKCG (human) = PRKCG (human) (UniProt P05129)
TSSK1B (human) = TSSK1B (human) (UniProt Q9BXA7)
SIK3 (human) = SIK3 (human) (UniProt Q9Y2K2)
SIK2 (human) = SIK2 (human) (UniProt Q9H0K1)
[3] = tested on: TGFBR1 (human), P36897 [T204D]
Chain of TGFBR1 (human), P36897 [T204D] (P36897 whole entry T204D, looked up): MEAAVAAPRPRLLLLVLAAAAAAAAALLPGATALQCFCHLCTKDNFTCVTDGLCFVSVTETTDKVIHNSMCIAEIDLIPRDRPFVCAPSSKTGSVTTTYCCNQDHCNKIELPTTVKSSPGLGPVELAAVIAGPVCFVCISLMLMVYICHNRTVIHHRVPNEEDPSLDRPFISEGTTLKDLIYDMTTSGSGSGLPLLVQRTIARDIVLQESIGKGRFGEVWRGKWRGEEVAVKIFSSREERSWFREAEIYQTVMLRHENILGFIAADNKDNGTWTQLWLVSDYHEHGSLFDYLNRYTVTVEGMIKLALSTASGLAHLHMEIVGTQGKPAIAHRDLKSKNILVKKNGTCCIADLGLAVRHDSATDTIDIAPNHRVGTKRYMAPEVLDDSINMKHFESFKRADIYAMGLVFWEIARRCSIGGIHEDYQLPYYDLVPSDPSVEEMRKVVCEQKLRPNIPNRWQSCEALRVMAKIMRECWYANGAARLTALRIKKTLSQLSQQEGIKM

PDGFRA (human) = PDGFRA (human) (UniProt P16234)
TTBK2 (human) = TTBK2 (human) (UniProt Q6IQ55)
IRAK1 (human) = IRAK1 (human) (UniProt P51617)
TEK (human) = TEK (human) (UniProt Q02763); conditions: compound 1.0 µM
CDK9 CCNT1 (human) = CDK9 CCNT1 (human) (UniProt P50750+O60563)
Chain of CDK9 CCNT1 (human) (O60563 whole entry, looked up): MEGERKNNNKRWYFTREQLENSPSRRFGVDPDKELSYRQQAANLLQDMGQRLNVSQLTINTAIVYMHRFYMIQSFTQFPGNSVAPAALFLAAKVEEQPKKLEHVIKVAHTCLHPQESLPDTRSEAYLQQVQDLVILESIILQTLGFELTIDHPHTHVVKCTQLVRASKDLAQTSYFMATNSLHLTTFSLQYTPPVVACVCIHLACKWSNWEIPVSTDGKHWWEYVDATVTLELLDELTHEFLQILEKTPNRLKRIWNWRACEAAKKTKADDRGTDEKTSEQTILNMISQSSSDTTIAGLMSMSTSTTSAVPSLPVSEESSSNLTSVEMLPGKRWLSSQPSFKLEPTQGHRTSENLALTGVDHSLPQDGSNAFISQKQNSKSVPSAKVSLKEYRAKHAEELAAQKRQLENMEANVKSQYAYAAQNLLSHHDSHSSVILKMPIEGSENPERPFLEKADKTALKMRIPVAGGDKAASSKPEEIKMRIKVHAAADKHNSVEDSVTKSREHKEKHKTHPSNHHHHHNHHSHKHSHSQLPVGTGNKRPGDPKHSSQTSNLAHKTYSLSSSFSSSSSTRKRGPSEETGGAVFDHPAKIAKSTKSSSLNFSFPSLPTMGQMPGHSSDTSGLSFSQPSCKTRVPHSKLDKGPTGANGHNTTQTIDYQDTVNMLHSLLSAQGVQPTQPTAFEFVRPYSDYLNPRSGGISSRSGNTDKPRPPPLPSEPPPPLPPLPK
Chain of CDK9 CCNT1 (human) (P50750 whole entry, looked up): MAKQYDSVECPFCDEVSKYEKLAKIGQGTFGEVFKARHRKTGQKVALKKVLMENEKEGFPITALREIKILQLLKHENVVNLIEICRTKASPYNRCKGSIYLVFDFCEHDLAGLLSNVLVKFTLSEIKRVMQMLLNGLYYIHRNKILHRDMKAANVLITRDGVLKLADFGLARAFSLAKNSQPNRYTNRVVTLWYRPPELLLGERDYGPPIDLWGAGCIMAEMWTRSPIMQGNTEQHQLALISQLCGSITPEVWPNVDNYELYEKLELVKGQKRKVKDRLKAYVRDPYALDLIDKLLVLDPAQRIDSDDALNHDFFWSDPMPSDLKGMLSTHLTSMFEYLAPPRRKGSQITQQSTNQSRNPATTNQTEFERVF

Chain of MAPK7 (human) (Q13164 whole entry, looked up): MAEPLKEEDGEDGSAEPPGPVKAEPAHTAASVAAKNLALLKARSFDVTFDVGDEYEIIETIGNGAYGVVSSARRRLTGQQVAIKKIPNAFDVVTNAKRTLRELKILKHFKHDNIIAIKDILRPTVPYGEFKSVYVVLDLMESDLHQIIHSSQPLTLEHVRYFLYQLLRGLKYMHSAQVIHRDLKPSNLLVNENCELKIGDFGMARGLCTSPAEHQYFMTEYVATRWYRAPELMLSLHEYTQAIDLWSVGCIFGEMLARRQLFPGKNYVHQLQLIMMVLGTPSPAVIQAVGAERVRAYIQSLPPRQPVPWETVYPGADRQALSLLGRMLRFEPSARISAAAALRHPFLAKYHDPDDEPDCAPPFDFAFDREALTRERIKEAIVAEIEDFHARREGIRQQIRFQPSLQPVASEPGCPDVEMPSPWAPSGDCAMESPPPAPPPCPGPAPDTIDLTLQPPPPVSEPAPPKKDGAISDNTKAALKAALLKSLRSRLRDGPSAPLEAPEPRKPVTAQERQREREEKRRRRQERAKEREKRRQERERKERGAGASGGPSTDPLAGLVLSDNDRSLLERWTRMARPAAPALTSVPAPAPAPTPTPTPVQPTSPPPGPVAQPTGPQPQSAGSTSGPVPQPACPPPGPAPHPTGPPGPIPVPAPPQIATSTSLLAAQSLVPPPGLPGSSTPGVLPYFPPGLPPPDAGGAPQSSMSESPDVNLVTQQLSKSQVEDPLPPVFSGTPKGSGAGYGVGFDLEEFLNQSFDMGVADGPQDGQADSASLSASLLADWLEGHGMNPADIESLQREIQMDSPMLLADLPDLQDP

For Nc1cccc2c1CN(C1CCC(=O)NC1=O)C2=O (stereo not given), the residual activity (MAPK7 (human); compound 1.0 µM) was 98%, the residual activity (MAPK7 (human); compound 10.0 µM) was 107% and the residual activity (MAP4K3 (human); compound 1.0 µM) was 100%. It also gave a residual activity (MAP4K3 (human); compound 10.0 µM) of 110%, a residual activity (NUAK1 (human); compound 1.0 µM) of 99% and a residual activity (TLK1 (human); compound 1.0 µM) of 95%. For the same compound, the residual activity (TLK1 (human); compound 10.0 µM) was 106%, the residual activity (DDR2 (human); compound 1.0 µM) was 102% and the residual activity (DDR2 (human); compound 10.0 µM) was 102%. For the same compound, the residual activity (STK16 (human); compound 1.0 µM) was 98%, the residual activity (STK16 (human); compound 10.0 µM) was 100% and the residual activity (TTBK1 (human); compound 1.0 µM) was 106%. It also gave a residual activity (TTBK1 (human); compound 10.0 µM) of 118%, a residual activity (EIF2AK3 (human); compound 1.0 µM) of 86% and a residual activity (EIF2AK3 (human); compound 10.0 µM) of 101%. For the same compound, the residual activity (STK33 (human); compound 1.0 µM) was 128%, the residual activity (STK33 (human); compound 10.0 µM) was 119% and the residual activity ([1]; compound 1.0 µM) was 106%. For the same compound, the residual activity ([1]; compound 10.0 µM) was 102%, the residual activity (STK24 (human); compound 1.0 µM) was 82% and the residual activity (STK24 (human); compound 10.0 µM) was 84%. The residual activity (ULK1 (human); compound 1.0 µM) was 104%, the residual activity (ULK1 (human); compound 10.0 µM) was 103% and the residual activity (PTK6 (human); compound 10.0 µM) was 114%. The residual activity (ULK2 (human); compound 1.0 µM) was 106%, the residual activity (ULK2 (human); compound 10.0 µM) was 105% and the residual activity (MAP4K5 (human); compound 1.0 µM) was 109%. It also gave a residual activity (MAP4K5 (human); compound 10.0 µM) of 115%, a residual activity (ABL1 (human); compound 1.0 µM) of 96% and a residual activity (ABL1 (human); compound 10.0 µM) of 101%. It also gave a residual activity (CSNK1G2 (human); compound 1.0 µM) of 99%, a residual activity (CSNK1G2 (human); compound 10.0 µM) of 90% and a residual activity (ZAP70 (human); compound 1.0 µM) of 110%. It also gave a residual activity (ZAP70 (human); compound 10.0 µM) of 116%, a residual activity (WNK1 (human); compound 1.0 µM) of 104% and a residual activity (WNK1 (human); compound 10.0 µM) of 106%. The residual activity (MAP2K6 (human); compound 1.0 µM) was 93%, the residual activity (MAP2K6 (human); compound 10.0 µM) was 100% and the residual activity ([2]; compound 1.0 µM) was 91%. For the same compound, the residual activity ([2]; compound 10.0 µM) was 112%, the residual activity (TESK1 (human); compound 1.0 µM) was 77% and the residual activity (TESK1 (human); compound 10.0 µM) was 77%. The residual activity (PRKCG (human); compound 1.0 µM) was 108%, the residual activity (PRKCG (human); compound 10.0 µM) was 112% and the residual activity (TSSK1B (human); compound 1.0 µM) was 89%. The residual activity (TSSK1B (human); compound 10.0 µM) was 100%, the residual activity (SIK3 (human); compound 1.0 µM) was 91% and the residual activity (SIK3 (human); compound 10.0 µM) was 94%. It also gave a residual activity (SIK2 (human); compound 1.0 µM) of 83%, a residual activity (SIK2 (human); compound 10.0 µM) of 91% and a residual activity ([3]; compound 1.0 µM) of 105%. For the same compound, the residual activity ([3]; compound 10.0 µM) was 115%, the residual activity (PDGFRA (human); compound 1.0 µM) was 85% and the residual activity (PDGFRA (human); compound 10.0 µM) was 82%. The residual activity (TTBK2 (human); compound 10.0 µM) was 101%, the residual activity (IRAK1 (human); compound 1.0 µM) was 96% and the residual activity (IRAK1 (human); compound 10.0 µM) was 101%.

NCC(=O)Nc1ccc(-n2nc(C(F)(F)F)cc2-c2ccc3c(ccc4ccccc43)c2)cc1 was tested, and the residual activity (MAPK7 (human); compound 1.0 µM) was 91%, the residual activity (MAPK7 (human); compound 10.0 µM) was 89% and the residual activity (MAP4K3 (human); compound 1.0 µM) was 84%. The residual activity (MAP4K3 (human); compound 10.0 µM) was 73%, the residual activity (NUAK1 (human); compound 1.0 µM) was 85% and the residual activity (NUAK1 (human); compound 10.0 µM) was 61%. It also gave a residual activity (TLK1 (human); compound 1.0 µM) of 89%, a residual activity (TLK1 (human); compound 10.0 µM) of 104% and a residual activity (DDR2 (human); compound 1.0 µM) of 92%. For the same compound, the residual activity (DDR2 (human); compound 10.0 µM) was 101%, the residual activity (TTBK1 (human); compound 1.0 µM) was 88% and the residual activity (EIF2AK3 (human); compound 1.0 µM) was 102%. For the same compound, the residual activity (STK33 (human); compound 1.0 µM) was 91%, the residual activity (STK33 (human); compound 10.0 µM) was 92% and the residual activity ([1]; compound 1.0 µM) was 88%. The residual activity ([1]; compound 10.0 µM) was 94%, the residual activity (STK24 (human); compound 1.0 µM) was 84% and the residual activity (STK24 (human); compound 10.0 µM) was 70%. The residual activity (ULK1 (human); compound 1.0 µM) was 86%, the residual activity (ULK1 (human); compound 10.0 µM) was 97% and the residual activity (PTK6 (human); compound 1.0 µM) was 91%. The residual activity (PTK6 (human); compound 10.0 µM) was 91%, the residual activity (MAP4K5 (human); compound 1.0 µM) was 80% and the residual activity (MAP4K5 (human); compound 10.0 µM) was 73%. It also gave a residual activity (ABL1 (human); compound 1.0 µM) of 95%, a residual activity (ABL1 (human); compound 10.0 µM) of 103% and a residual activity (CSNK1G2 (human); compound 1.0 µM) of 93%. It also gave a residual activity (CSNK1G2 (human); compound 10.0 µM) of 90%, a residual activity (ZAP70 (human); compound 1.0 µM) of 84% and a residual activity (ZAP70 (human); compound 10.0 µM) of 83%. It also gave a residual activity (WNK1 (human); compound 10.0 µM) of 105%, a residual activity (MAP2K6 (human); compound 1.0 µM) of 82% and a residual activity (MAP2K6 (human); compound 10.0 µM) of 74%. The residual activity ([2]; compound 1.0 µM) was 95%, the residual activity (TESK1 (human); compound 1.0 µM) was 84% and the residual activity (TESK1 (human); compound 10.0 µM) was 103%. The residual activity (PRKCG (human); compound 1.0 µM) was 95%, the residual activity (PRKCG (human); compound 10.0 µM) was 97% and the residual activity (TSSK1B (human); compound 10.0 µM) was 83%. For the same compound, the residual activity (SIK3 (human); compound 1.0 µM) was 91%, the residual activity (SIK3 (human); compound 10.0 µM) was 101% and the residual activity (SIK2 (human); compound 1.0 µM) was 95%. It also gave a residual activity (SIK2 (human); compound 10.0 µM) of 79%, a residual activity ([3]; compound 1.0 µM) of 98% and a residual activity ([3]; compound 10.0 µM) of 98%. The residual activity (TEK (human)) was 103%, the residual activity (PDGFRA (human); compound 1.0 µM) was 82% and the residual activity (PDGFRA (human); compound 10.0 µM) was 98%. For the same compound, the residual activity (CDK9 CCNT1 (human); compound 1.0 µM) was 82%, the residual activity (CDK9 CCNT1 (human); compound 10.0 µM) was 83% and the residual activity (TTBK2 (human); compound 1.0 µM) was 96%. For the same compound, the residual activity (TTBK2 (human); compound 10.0 µM) was 154% and the residual activity (IRAK1 (human); compound 10.0 µM) was 80%.

For CN1CCN(CCOc2cc(OC3CCOCC3)c3c(Nc4c(Cl)ccc5c4OCO5)ncnc3c2)CC1, the residual activity (MAPK7 (human); compound 0.1 µM) was 90%, the residual activity (MAP4K3 (human); compound 0.1 µM) was 85% and the residual activity (NUAK1 (human); compound 0.1 µM) was 95%. It also gave a residual activity (TLK1 (human); compound 0.1 µM) of 107%, a residual activity (DDR2 (human); compound 0.1 µM) of 20% and a residual activity (STK16 (human); compound 0.1 µM) of 108%. For the same compound, the residual activity (EIF2AK3 (human); compound 0.1 µM) was 111%, the residual activity (STK33 (human); compound 0.1 µM) was 105% and the residual activity ([1]; compound 0.1 µM) was 102%. For the same compound, the residual activity (STK24 (human); compound 0.1 µM) was 102%, the residual activity (ULK1 (human); compound 0.1 µM) was 99% and the residual activity (PTK6 (human); compound 0.1 µM) was 31%. It also gave a residual activity (ULK2 (human); compound 0.1 µM) of 109%, a residual activity (MAP4K5 (human); compound 0.1 µM) of 70% and a residual activity (ABL1 (human); compound 0.1 µM) of 26%. For the same compound, the residual activity (CSNK1G2 (human); compound 0.1 µM) was 107%, the residual activity (ZAP70 (human); compound 0.1 µM) was 122% and the residual activity (WNK1 (human); compound 0.1 µM) was 99%. For the same compound, the residual activity (MAP2K6 (human); compound 0.1 µM) was 100%, the residual activity ([2]; compound 0.1 µM) was 102% and the residual activity (TESK1 (human); compound 0.1 µM) was 94%. The residual activity (PRKCG (human); compound 0.1 µM) was 103%, the residual activity (TSSK1B (human); compound 0.1 µM) was 115% and the residual activity (SIK3 (human); compound 0.1 µM) was 92%. For the same compound, the residual activity (SIK2 (human); compound 0.1 µM) was 51%, the residual activity ([3]; compound 0.1 µM) was 90% and the residual activity (PDGFRA (human); compound 0.1 µM) was 101%. It also gave a residual activity (CDK9 CCNT1 (human); compound 0.1 µM) of 100%, a residual activity (TTBK2 (human); compound 0.1 µM) of 94% and a residual activity (IRAK1 (human); compound 0.1 µM) of 84%.
